This test relates to human cervical tumor cell line HeLa (ATCC CCL-2). The experiment in a line: SAC-Formation - Paclitaxel-Induced Assay. The settings on record: Homo sapiens, HeLa, 24 h, HeLa cells, paclitaxel 0.05 μM, test range 0.005 μM-20 μM, read-out: IC50 [mol/l] SAC-Formation - Paclitaxel-Induced Assay. Format: cell-based. The essentials:
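Read-out is high-content imaging of anti-phospho-H3 Ser10 (mitosis) and Hoechst 33342 (DNA, cell number), with decreased mitotic fraction marking checkpoint breakthrough. Compounds (0.005–20 μM) and 0.05 μM paclitaxel co-added to overnight-plated HeLa for 24 h at 37° C; four-parameter Hill fit.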

This passage reports IC50 results from patent US20170334899A1, “AMINO-SUBSTITUTED ISOTHIAZOLES” (Bayer Pharma Aktiengesellschaft, priority 2014, published 2017).

For `Cc1nsc(Nc2cnc3ccccc3n2)c1C(=O)Nc1ccc(OC2CCN(CC(F)F)CC2)nc1` [Example 20, N-(6-{[1-(2,2-difluoroethyl)piperidin-4-yl]oxy}pyridin-3-yl)-3-methyl-5-(quinoxalin-2-ylamino)-1,2-thiazole-4-carboxamide], the IC50 was determined as 180 nM.

With `Cc1nsc(Nc2ccc(C#N)cn2)c1C(=O)Nc1cccc(N)c1` [Example 180, N-(3-aminophenyl)-5-[(5-cyanopyridin-2-yl)amino]-3-methyl-1,2-thiazole-4-carboxamide], the IC50 was 4300 nM.

In the case of `Cc1nsc(Nc2cnc(C(F)(F)F)cn2)c1C(=O)Nc1ccc(OCCNC(=O)OC(C)(C)C)nc1` [Example 192, tert-butyl {2-[(5-{[(3-methyl-5-{[5-(trifluoromethyl)pyrazin-2-yl]amino}-1,2-thiazol-4-yl)carbonyl]amino}pyridin-2-yl)oxy]ethyl}carbamate], the IC50 came to 180 nM.

As for `Cc1nsc(Nc2cnc3ccccc3n2)c1C(=O)Nc1ccc(Nc2ccc(F)c(F)c2)nc1` [Example 245, N-{6-[(3,4-difluorophenyl)amino]pyridin-3-yl}-3-methyl-5-(quinoxalin-2-ylamino)-1,2-thiazole-4-carboxamide], the IC50 came to 1700 nM.

Take `Cc1nsc(Nc2cncc(C(F)(F)F)n2)c1C(=O)Nc1ccc(OCCCN)nc1` [Example 209, N-[6-(3-aminopropoxy)pyridin-3-yl]-3-methyl-5-{[6-(trifluoromethyl)pyrazin-2-yl]amino}-1,2-thiazole-4-carboxamide]: the IC50 came out at 2300 nM.

For `Cc1nsc(Nc2cncc(C(F)(F)F)n2)c1C(=O)Nc1ccc(OC2CCN(CC(F)F)CC2)c(F)c1` [Example 224, N-(4-{[1-(2,2-difluoroethyl)piperidin-4-yl]oxy}-3-fluorophenyl)-3-methyl-5-{[6-(trifluoromethyl)pyrazin-2-yl]amino}-1,2-thiazole-4-carboxamide], the IC50 was 180 nM.

On to `Cc1nsc(Nc2cnc3ccccc3n2)c1C(=O)Nc1cccc(NC(=O)OC(C)(C)C)c1` [Example 178, tert-butyl [3-({[3-methyl-5-(quinoxalin-2-ylamino)-1,2-thiazol-4-yl]carbonyl}amino)-phenyl]carbamate], for which the IC50 came to 260 nM.

As to `COC(=O)c1cc(NC(=O)c2c(C)nsc2Nc2cnc3ccccc3n2)cc(C(=O)OC)c1` [Example 237, dimethyl 5-({[3-methyl-5-(quinoxalin-2-ylamino)-1,2-thiazol-4-yl]carbonyl}amino)isophthalate], the IC50 is 20000 nM.

On to `Cc1nsc(Nc2cnc(C(F)(F)F)cn2)c1C(=O)Nc1ccc(OC2CCN(C(=O)OC(C)(C)C)CC2)c(F)c1` [Example 217, tert-butyl 4-(2-fluoro-4-{[(3-methyl-5-{[5-(trifluoromethyl)pyrazin-2-yl]amino}-1,2-thiazol-4-yl)carbonyl]amino}phenoxy)piperidine-1-carboxylate], for which the IC50 came out at 410 nM.

In the case of `Cc1nsc(Nc2cc(C#N)ccn2)c1C(=O)Nc1cccc(C(=O)NC2CC2)c1` [Example 175, 5-[(4-cyanopyridin-2-yl)amino]-N-[3-(cyclopropylcarbamoyl)phenyl]-3-methyl-1,2-thiazole-4-carboxamide], the IC50 stood at 2600 nM.

Regarding `Cc1nsc(Nc2cncc(C(F)(F)F)n2)c1C(=O)Nc1ccc(OCCNC(=O)OC(C)(C)C)c(F)c1` [Example 216, tert-butyl [2-(2-fluoro-4-{[(3-methyl-5-{[6-(trifluoromethyl)pyrazin-2-yl]amino}-1,2-thiazol-4-yl)carbonyl]amino}phenoxy)ethyl]carbamate], the IC50 worked out at 140 nM.

Consider `Cc1nsc(Nc2cncc(C(F)(F)F)n2)c1C(=O)Nc1ccc(OC2CCN(CCF)CC2)nc1` [Example 14, N-(6-{[1-(2-Fluoroethyl)piperidin-4-yl]oxy}pyridin-3-yl)-3-methyl-5-{[6-(trifluoro-methyl)pyrazin-2-yl]amino}-1,2-thiazole-4-carboxamide], for which the IC50 came out at 630 nM.

With `Cc1nsc(Nc2cnc3ccccc3n2)c1C(=O)Nc1ccc(F)c(C(N)=O)c1` [Example 202, N-(3-carbamoyl-4-fluorophenyl)-3-methyl-5-(quinoxalin-2-ylamino)-1,2-thiazole-4-carboxamide], the IC50 came to 130 nM.

For `Cc1nsc(Nc2cc(C#N)ccn2)c1C(=O)Nc1ccc(Oc2cccc(C(F)(F)F)c2)nc1` [Example 230, 5-[(4-cyanopyridin-2-yl)amino]-3-methyl-N-{6-[3-(trifluoromethyl)phenoxy]pyridin-3-yl}-1,2-thiazole-4-carboxamide], the IC50 worked out at 82 nM.

For `Cc1nsc(Nc2cnc3ccccc3n2)c1C(=O)Nc1cccc(NC(=O)C(C)(C)C)c1` [Example 186, N-{3-[(2,2-dimethylpropanoyl)amino]phenyl}-3-methyl-5-(quinoxalin-2-ylamino)-1,2-thiazole-4-carboxamide], the IC50 amounted to 3800 nM.

In the case of `CCN(CC)CCNC(=O)c1cccc(NC(=O)c2c(C)nsc2Nc2cnccn2)c1` [Example 247, N-(3-{[2-(diethylamino)ethyl]carbamoyl}phenyl)-3-methyl-5-(pyrazin-2-ylamino)-1,2-thiazole-4-carboxamide], the IC50 was 140 nM.

For the molecule `Cc1nsc(Nc2ccc(C#N)cn2)c1C(=O)Nc1ccc(S(C)(=O)=O)cc1` [Example 246, 5-[(5-cyanopyridin-2-yl)amino]-3-methyl-N-[4-(methylsulfonyl)phenyl]-1,2-thiazole-4-carboxamide], the IC50 is 77 nM.

As for `Cc1nsc(Nc2ccc(C#N)cn2)c1C(=O)Nc1ccc(F)c(C(N)=O)c1` [Example 203, N-(3-carbamoyl-4-fluorophenyl)-5-[(5-cyanopyridin-2-yl)amino]-3-methyl-1,2-thiazole-4-carboxamide], the IC50 stood at 8500 nM.

As to `COc1ccc(NC(=O)c2c(C)nsc2Nc2cnc3ccccc3n2)c(CC#N)n1` [Example 235, N-[2-(cyanomethyl)-6-methoxypyridin-3-yl]-3-methyl-5-(quinoxalin-2-ylamino)-1,2-thiazole-4-carboxamide], the IC50 came to 1500 nM.

With `Cc1nsc(Nc2cnc3ccccc3n2)c1C(=O)Nc1ccc(Oc2cccnc2)nc1` [Example 231, 3-methyl-N-[6-(pyridin-3-yloxy)pyridin-3-yl]-5-(quinoxalin-2-ylamino)-1,2-thiazole-4-carboxamide], the IC50 is 260 nM.

Regarding `Cc1nsc(Nc2cncc(C(F)(F)F)n2)c1C(=O)Nc1cccc(S(C)(=O)=O)c1` [Example 194, 3-methyl-N-[3-(methylsulfonyl)phenyl]-5-{[6-(trifluoromethyl)pyrazin-2-yl]amino}-1,2-thiazole-4-carboxamide], the IC50 came to 290 nM.

For `Cc1nsc(Nc2cncc(C(F)(F)F)n2)c1C(=O)Nc1ccc(C(=O)NC2CCN(C(=O)OC(C)(C)C)CC2)cc1` [Example 222, tert-butyl 4-[(4-{[(3-methyl-5-{[6-(trifluoromethyl)pyrazin-2-yl]amino}-1,2-thiazol-4-yl)carbonyl]amino}benzoyl)amino] piperidine-1-carboxylate], the IC50 was found to be 820 nM.

Turning to `Cc1nsc(Nc2cnc3ccccc3n2)c1C(=O)Nc1ccc(NCCNC(=O)OC(C)(C)C)nc1` [Example 244, tert-butyl (2-{[5-({[3-methyl-5-(quinoxalin-2-ylamino)-1,2-thiazol-4-yl]carbonyl}amino)pyridin-2-yl]amino}ethyl)carbamate], the IC50 turned out to be 3900 nM.

With `CNC(=O)c1ccc(NC(=O)c2c(C)nsc2Nc2ccc(C#N)cn2)cc1F` [Example 208, 5-[(5-cyanopyridin-2-yl)amino]-N-[3-fluoro-4-(methylcarbamoyl)phenyl]-3-methyl-1,2-thiazole-4-carboxamide], the IC50 is 41 nM.

In the case of `Cc1nsc(Nc2cncc(C(F)(F)F)n2)c1C(=O)Nc1ccc(OCCN)nc1` [Example 196, N-[6-(2-aminoethoxy)pyridin-3-yl]-3-methyl-5-{[6-(trifluoromethyl)pyrazin-2-yl]amino}-1,2-thiazole-4-carboxamide], the IC50 is 1300 nM.

Regarding `Cc1nsc(Nc2cnc3ccccc3n2)c1C(=O)Nc1ccc(NCC2CCN(C(=O)OC(C)(C)C)CC2)nc1` [Example 238, tert-butyl 4-({[5-({[3-methyl-5-(quinoxalin-2-ylamino)-1,2-thiazol-4-yl]carbonyl}amino)pyridin-2-yl]amino}methyl)piperidine-1-carboxylate], the IC50 stood at 9700 nM.

With `Cc1nsc(Nc2cnc3ccccc3n2)c1C(=O)Nc1ccc(OCCC(=O)OC(C)(C)C)nc1` [Example 198, tert-butyl 3-{[5-({[3-methyl-5-(quinoxalin-2-ylamino)-1,2-thiazol-4-yl]carbonyl}amino)pyridin-2-yl]oxy}propanoate], the IC50 was found to be 740 nM.

As to `CCN(CC)CCNC(=O)c1cccc(NC(=O)c2c(C)nsc2Nc2cc(C#N)ccn2)c1` [Example 174, 5-[(4-cyanopyridin-2-yl)amino]-N-(3-{[2-(diethylamino)ethyl]carbamoyl}phenyl)-3-methyl-1,2-thiazole-4-carboxamide], the IC50 was 550 nM.

As for `Cc1nsc(Nc2cnc(C(F)(F)F)cn2)c1C(=O)Nc1cccc(S(C)(=O)=O)c1` [Example 195, 3-methyl-N-[3-(methylsulfonyl)phenyl]-5-{[5-(trifluoromethyl)pyrazin-2-yl]amino}-1,2-thiazole-4-carboxamide], the IC50 is 520 nM.

With `Cc1nsc(Nc2ccc(C#N)cn2)c1C(=O)Nc1ccc(OCCC(=O)OC(C)(C)C)nc1` [Example 199, tert-butyl 3-({5-[({5-[(5-cyanopyridin-2-yl)amino]-3-methyl-1,2-thiazol-4-yl}carbonyl)amino]pyridin-2-yl}oxy)propanoate], the IC50 came to 110 nM.

With `Cc1nsc(Nc2cnc3ccccc3n2)c1C(=O)Nc1ccc(NC2CCCN(C(=O)OC(C)(C)C)C2)nc1` (stereo not shown) [Example 241, tert-butyl 3-{[5-({[3-methyl-5-(quinoxalin-2-ylamino)-1,2-thiazol-4-yl]carbonyl}amino)pyridin-2-yl]amino}piperidine-1-carboxylate], the IC50 came to 2300 nM.
